Measured values as given in the METLIN SMRT retention time set (Domingo-Almenara et al. 2019).

Test: gradient 5% acetonitrile 3 min, to 50% in 2 min, to 85% in 15 min, held 3 min, 100 µL/min
Conditions: column: Zorbax Extend-C18 2.1 x 50 mm; eluents: water / acetonitrile, 0.1% formic acid
In short: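 Data were gathered over 3 months by HPLC coupled to a quadrupole time-of-flight mass spectrometer, operated in positive and negative ionization mode. Mixtures of ~100 pure standards ran on a Zorbax Extend-C18 column (2.1 × 50 mm, 1.8 μm) at 100 μL/min, with water and acetonitrile each containing 0.1% formic acid and dead and dwell volumes of 40 μL and 900 μL. Retention time was read from adduct peaks picked by computer and checked manually.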

| SMILES | RP-LC retention time [s] |
| --- | --- |
| N#Cc1cccc(-c2cn3c(n2)N(C(=O)c2cccc(F)c2)CCC3)c1 | 749 |
| CCN1c2ccc(F)cc2C(=O)NC12CCN(C(=O)Cc1ccc(C)cc1)CC2 | 853 |
| O=C(Nc1nnc(CCS(=O)(=O)c2ccccc2)o1)C1COc2ccccc2O1 (stereo unspecified) | 686 |
| COC(=O)Cn1c(C2CC(=O)N(Cc3ccccc3)C2)nc2ccccc21 (stereo unspecified) | 770 |
| O=C(NCC1(CO)CC1)c1cc(-c2ccccc2)on1 | 703 |
| COc1ccc(Br)cc1CNC(=O)Cn1cnc2nc3c(cc2c1=O)CC(C)CC3 (stereo unspecified) | 845 |
| Cn1nc(CNC(=O)c2ccc(Cl)cc2)c2ccccc21 | 852 |
| CCNC(=O)c1sc2nc(-c3cccc(F)c3)c(NCCCOC)n2c1C | 844 |
| COc1ccc2c3c([nH]c2c1)[C@H](C=C(C)C)N1C(=O)[C@@H]2CCCN2C(=O)[C@@H]1C3 | 871 |
| CCCC(=O)Nc1ccc2c(c1)CC(C(=O)NCCOC)CO2 (stereo unspecified) | 646 |
| Cc1cc2c(c(=O)n(-c3ccc(F)cc3)c(=O)n2CC(=O)Nc2cccc(Br)c2)n1C | 861 |
| Cc1cccc(C)c1NC(=O)Cn1cnc2c(sc3nc(-c4ccccc4)ccc32)c1=O | 972 |
| CCc1cc(C(=O)N2CCCC2c2ccc(C)cc2)no1 (stereo unspecified) | 999 |
| Cc1ccc(N2CC(NC(=O)NCc3ccco3)CC2=O)cc1C (stereo unspecified) | 682 |
| Cn1cc(S(=O)(=O)N2CCC(C(=O)NCc3ccc(Cl)cc3)CC2)cc1C(=O)N1CCCC1 | 772 |
| Cc1ccc2cc(CCC(=O)NCCN3CCN(C)CC3)c(=O)[nH]c2c1 | 559 |
| Cc1nc(-c2cc3ccccc3nc2N2CCN(c3ccccc3F)CC2)no1 | 711 |
| O=C1CC(NC(=O)NCc2ccc(Cl)cc2)CN1 (stereo unspecified) | 592 |
| COc1nc2ccccc2nc1N1CCCC(C(=O)Nc2cc(C)c(Br)cc2C)C1 (stereo unspecified) | 1290 |
| CCc1ccc(NC(=O)C(=O)NCC(c2ccc3c(c2)OCO3)N2CCOCC2)cc1 (stereo unspecified) | 613 |
| CNC(=O)N1CCCN(C2=NS(=O)(=O)C(c3ccc(F)cc3)=C2C)CC1 | 681 |

| SMILES | RP-LC retention time [s] |
| --- | --- |
| O=C(O)c1cn(Cc2ccccc2)c(=O)c2ccccc12 | 788 |
| Cc1ccc(Cn2c(C)c(CNCCc3ccco3)c(C(=O)O)c2C)cc1 | 630 |
| Cc1noc([C@@H]2CN(Cc3cn[nH]c3-c3ccccc3)C[C@H]2CO)n1 | 582 |
| Cc1ccsc1C(=O)N1CCC2(CC1)NC(=O)N(Cc1ccccc1Cl)C2=O | 847 |
| c1ccc(-c2nc(-c3ccc(-n4ccnc4)nc3)no2)cc1 | 720 |
| Cc1ccccc1NC(=O)N1CCc2nc(-c3ccccc3)ncc2C1 | 817 |
| CNC(=O)c1cc(-c2cccc(F)c2)nc2ccccc12 | 850 |
| Cc1ccccc1NC(=O)C1CCc2nc(N3CCCCC3)ncc2C1 (stereo unspecified) | 688 |
| COC(=O)c1ccc(NC(=O)N2CCN(c3nc4ccccc4nc3C(F)(F)F)CC2)cc1 | 1080 |
| COC(=O)c1cnc2nc(C)ccc2c1Nc1ccc(OC)c(Cl)c1 | 682 |
| NS(=O)(=O)c1ccc(CCNc2nnnc3c2cnn3-c2ccccc2)cc1 | 814 |
| COc1ccc(NC(=O)N2CCCC2c2nc(-c3ccccc3)no2)cc1 (stereo unspecified) | 876 |
| Cc1nc([C@@H]2CN(C(=O)C(C)(C)C)C[C@H]2C(N)=O)n[nH]1 | 564 |
| Cc1ccc(-c2csc(NC(=O)c3ccc4c(c3)OCO4)n2)cc1C | 1100 |
| O=C(NC1CCc2nn(CC3CC3)c(=O)n2CC1)c1cc(C2CC2)[nH]n1 (stereo unspecified) | 627 |
| Cc1ccc2oc(-c3noc(C(=O)NCc4ccc(C)o4)n3)c(C)c2c1 | 1080 |
| O=C(COc1ccc(F)cc1)N1CCN2CCS(=O)(=O)N(C3CC3)C(=O)C2C1 (stereo unspecified) | 773 |
| COc1nc2ccccc2nc1N1CCCC(C(=O)Nc2cccc(Cl)c2)C1 (stereo unspecified) | 1220 |
| O=C(NCCN1CCCC1)c1c2c(nc3ccccc13)C(=O)N(C1CCCCC1)C2 | 598 |
| CCOc1ccccc1C1NC(=O)N(CC(=O)N2CCN(c3ccc(F)cc3)CC2)C2=C1C(=O)OC2 (stereo unspecified) | 830 |

Next, values leading:

| RP-LC retention time [s] | SMILES |
| --- | --- |
| 849 | CSC(=O)NC(=O)NC(=O)c1ccc([N+](=O)[O-])cc1 |
| 972 | CCC(c1cccs1)N1C(=O)[C@H]2CN(S(=O)(=O)c3cccc(F)c3)C[C@H]2C1=O (stereo partly specified) |
| 774 | O=C(CSc1nnc2ccc(-c3cccc([N+](=O)[O-])c3)nn12)c1cccs1 |
| 604 | Cc1ccc(C2(C)NC(=O)NC2=O)cc1 (stereo unspecified) |
| 774 | O=C(NCCc1ccc(Cl)cc1)C1CCN(C(=O)C2Sc3ccccc3NC2=O)CC1 (stereo unspecified) |
| 610 | O=C(NC1CCCCCC1)C1CCN(c2ccncc2)CC1 |
| 972 | CCc1nn2c(CNS(=O)(=O)Cc3cccc(F)c3)c(-c3ccccc3)nc2s1 |
| 845 | Cc1csc(NC(=O)c2ccc(C(=O)Nc3nc(C)cs3)cc2)n1 |
| 709 | COCCNC(=O)c1nn(-c2ccc(Cl)cc2)c2c(=O)n(C)cnc12 |
| 740 | O=c1ccc(-c2nc(-c3ccc4c(c3)OCO4)no2)cn1Cc1cc(=O)n2ccccc2n1 |
| 703 | CC(=O)Oc1ccc(OC(C)=O)c2c1CC1(C)OC1(C)C2 (stereo unspecified) |
| 662 | CC(C)CCN1CCC(N2CCN(S(=O)(=O)c3ccccc3F)CC2)C1=O (stereo unspecified) |
| 853 | O=C(NCc1ccccc1F)c1ccc(NC(=O)C2CCC2)cc1N1CCOCC1 |
| 733 | Cc1ccccc1Nc1c(-c2ccccc2)nc2c(C)cccn12 |
| 885 | COC(=O)C(C)NC(=O)NCc1cccn1Cc1cc(C)ccc1C (stereo unspecified) |
| 977 | Cc1cc2nn(CC(=O)NCc3ccc(F)cc3)c(=O)n2c(Nc2ccccc2C)n1 |
| 730 | CCCn1cc(SCC(N)=O)c2ccccc21 |
| 607 | COCc1noc([C@@H]2CN(C(=O)CCc3c(C)noc3C)C[C@H]2C(N)=O)n1 |
| 673 | O=C(N1CCOCC1)C1(c2cc(-c3ccco3)on2)CC1 |
| 648 | CCn1c(=O)n(CC)c2cc(N3CCCC3)c(NC(=O)NCc3ccc(F)cc3)cc21 |
| 647 | Cn1c(COc2ccc(Cl)cc2)nc2ccccc21 |
| 1080 | CCN(CC)c1nc2cc(C(=O)OC)ccc2c(=O)n1-c1ccc2c(c1)OCO2 |
| 686 | CC(C)n1c(=O)c(NCc2ccc(F)cc2Cl)nc2ccncc21 |
| 647 | COc1cc(=O)n2c(c1C(=O)Nc1ccc3c(c1)OCCO3)CCCC2 |
| 609 | Cc1oc(-c2[nH]ncc2C(=O)N(C)C)cc1S(=O)(=O)Nc1ccccc1 |

| RP-LC retention time [s] | SMILES |
| --- | --- |
| 546 | Cc1nc(C2CCCN2Cc2ccccc2C)n[nH]1 (stereo unspecified) |
| 978 | COc1ccc(-c2nc(-c3ccc4oc(C)nc4c3)no2)cc1OC |
| 611 | COc1ccc(C2Cn3nc(-c4nc(C(C)(C)C)no4)cc3CO2)cc1 (stereo unspecified) |
| 698 | CNC(=O)[C@@H]1CN(C(=O)c2ccc(Cl)s2)C[C@H]1c1nc(COC)no1 |
| 1100 | Cc1sc(C)c(S(=O)(=O)NCc2cccs2)c1-c1cc(C(F)(F)F)on1 |
| 746 | Cc1ccc(CNC(=O)C2(C)CN(S(C)(=O)=O)CC(=O)N2c2ccc(F)cc2)cc1 (stereo unspecified) |
| 610 | O=C(NCC1CCN(c2ncccn2)CC1)Nc1c(F)cccc1F |
| 579 | O=C(NCC#CCN1CCc2ccccc2C1)c1cc(C2CC2)on1 |
| 675 | CCCNC(=O)C1CCN(c2ccc(SCC(=O)NCc3ccc(C(F)(F)F)cc3)nn2)CC1 |
| 516 | COc1ccc(NC(=O)Nc2cnc3c(c2)CCC3)cc1 |
| 564 | O=C(CCC1CCN(c2cc(NC3CC3)ncn2)CC1)NCc1cnccn1 |
| 760 | O=C(CN1C(=O)CSc2ccc(C(=O)N3CCCC3)cc21)NC1CCCCCCC1 |
| 1330 | Cc1cc(C)c(C)c(S(=O)(=O)N2CCCC2c2nc(-c3ccccc3)no2)c1C (stereo unspecified) |
| 1190 | Cc1cccc(NC(=O)Nc2nccn(-c3ccc(C(C)C)cc3)c2=O)c1 |
| 807 | COc1ccc(OC)c(NC(=O)C(=O)NCC2CCCO2)c1 (stereo unspecified) |
| 604 | CN(C)S(=O)(=O)c1ccc(-c2nnc(C(=O)NCc3ccncc3)o2)cc1 |
| 692 | Cc1nnsc1C(=O)Nc1nnc(SCC(=O)NCc2ccco2)s1 |
| 660 | O=C(Cn1ccc2cc(S(=O)(=O)N3CCCCC3)ccc21)N1CCN(c2ccccn2)CC1 |
| 610 | CC(C)N1CCN(C(=O)c2ccc(CN3CCN(Cc4ccccc4)C(=O)C3=O)cc2)CC1 |
| 667 | COc1ccc(-c2nc3cccnc3n2C2CCN(C(=O)NC(C)C)C2)cc1 (stereo unspecified) |
| 695 | COc1ccc(-c2cc3n(n2)CCCN(C(=O)c2cnccn2)C3)cc1 |
| 655 | COc1cc(NC(=O)Cn2c(N3CCOCC3)nc(C)cc2=O)cc(OC)c1 |
| 599 | O=C(NCCN1CCOCC1)c1c2c(nc3ccccc13)C(=O)N(C1CCCCC1)C2 |
| 728 | CN(C)c1ccc2ncc(=O)n(C)c2n1 |
| 719 | O=C(Nc1ccc2nncn2c1)c1cccc(Cl)c1 |
